Results taken from ChEMBL document CHEMBL5614442, “Discovery, synthesis and biological evaluation of novel isoquinoline derivatives as potent indoleamine 2, 3-dioxygenase 1 and tryptophan 2, 3-dioxygenase dual inhibitors” (Eur J Med Chem, 2024).

Key:
Format in all cases: organism-based
Settings in all cases: in vivo, 336 h, time 14 day
[1] = Toxicity in male C57BL/6 mouse implanted with mouse B16-F10 cells assessed as effect on spleen morphology at 100 mg/kg, ip administered once daily for 14 days by H and E staining based analysis
[2] = Toxicity in male C57BL/6 mouse implanted with mouse B16-F10 cells assessed as effect on lung morphology at 100 mg/kg, ip administered once daily for 14 days by H and E staining based analysis
[3] = Toxicity in male C57BL/6 mouse implanted with mouse B16-F10 cells assessed as effect on kidney morphology at 100 mg/kg, ip administered once daily for 14 days by H and E staining based analysis
[4] = Toxicity in male C57BL/6 mouse implanted with mouse B16-F10 cells assessed as effect on heart morphology at 100 mg/kg, ip administered once daily for 14 days by H and E staining based analysis
[5] = Toxicity in male C57BL/6 mouse implanted with mouse B16-F10 cells assessed as body weight loss at 100 mg/kg, ip administered once daily for 14 days
[6] = Toxicity in male C57BL/6 mouse implanted with mouse B16-F10 cells assessed as effect on liver morphology at 100 mg/kg, ip administered once daily for 14 days by H and E staining based analysis

Measured: Activity

Cn1cc(C[C@H](N)C(=O)O)c2ccccc21 [(L)-1-METHYLTRYPTOPHAN]
Non-Toxic: [1] | [2] | [3] | [4] | [5] | [6]
